Assays:
peritoneal mast cells = details: Theobald et al. 1987; cited from earlier work
[1] = test system: rat peritoneal mast cells; assay: Test 1: histamine release from rat peritoneal mast cells induced by calcium ionophore A23187; assay type: cell-based; details: for Histamine release (Relative %): A23187 5 μM, control (saline) = 100
Experimental: This test was performed to study the activity of the peptide of the present invention to promote the release of histamine from rat peritoneal mast cells induced by the calcium ionophore A23187.
Peritoneal cells were collected from Wistar rats after intraperitoneal injection of phosphate-buffered saline (consisting of 120 mM NaCl, 10 mM Na2 PO4, 3 mM KH2 PO4, pH 7.4). Their abdoments were massaged and the buffer containing the cells was recovered. The cells were centrifuged at 300×g for 15 min and washed twice with phosphate-buffered saline. The cells from several rats were pooled for use in the experiments.
Rat peritoneal cells containing about 1×10^5 mast cells per ml were used as the target cells. A 500 μl volume of the cell suspension was incubated with 100 μl volume of the test substance [purified peptide obtained by the method as in Example 1, or human lactoferrin (Sigma Chemical Co.), or bovine lactoferrin (Morinaga Milk industry Co.)] at 37° C. for 3O min. Thereafter, histamine release from the mast cells was induced by the addition of calcium ionophore A23187 (Sigma Chemical Co.) at a final concentration of 5 μM. After 10 min of incubation the cells were centrifuged at 300×g for 15 min and the supernatant was removed and deproteinized by the addition of 2 ml of HClO4 (2%). The deproteinized sample was then centrifuged at 2000×g for 20 min and the histamine content in the supernatant was determined by the fluorophotometric analyser technique (AutoAnalyzer: Technikon). Cells in the presence of phosphate-buffered saline served as control.

[2] = test system: rat peritoneal mast cells; assay: Test 2: histamine release from rat peritoneal mast cells induced by α-toxin-producing Staphylococcus aureus cells; assay type: cell-based; details: for Histamine release (Relative %): S. aureus 121 about 1.0×10^8 cells per ml, control (saline) = 100
Experimental: This test was performed to study the activity of the peptide of the present invention to promote the release of histamine from rat peritoneal mast cells induced by α-toxin-producing Staphylococcus aureus cells.
Staphylococcus aureus 121, an α-toxin-producing strain, was cultured overnight in Brain Heart Infusion broth at 37° C. The bacterial cells were collected by centrifugation at 4000×g for 20 min, washed with phosphate-buffered saline, and suspended in the same buffer for use in the experiment. Rat peritoneal cells were prepared as in Test 1.
The same method as in Test 1 was used, except histamine release from the mast cells was induced by the addition of α-toxin-producing Staphylococcus aureus cells at a final concentration of about 1.0×10^8 cells per ml.

[3] = test system: human polymorphonuclear neutrophils; assay: Test 3: leukotriene release from human polymorphonuclear neutrophils induced by calcium ionophore A23187; assay type: cell-based; details: for Leukotriene released (ng) B4 / Leukotriene released (ng) C4 / Leukotriene released (ng) 20-COOH / Leukotriene released (ng) 20-OH: A23187 5 μM; for Leukotriene released (ng) B4: saline control 12; for Leukotriene released (ng) C4: saline control 18; for Leukotriene released (ng) 20-COOH: saline control 31; for Leukotriene released (ng) 20-OH: saline control 55; for Leukotriene released (ng) (Total B4): sum of B4, 20-OH and 20-COOH, saline control 98
Experimental: This test was performed to study the activity of the peptide of the present invention to promote the release of leukotriene B4 from human polymorphonuclear neutrophils induced by the calcium ionophore A23187.
Human polymorphonuclear neutrophils were prepared by fractionation of leukocytes from heparinized blood of healthy donors on a Ficoll-metrizoategradient followed by dextran sedimentation. The cells were centrifuged at 300×g, and washed three times with phosphate-buffered saline, after which less than 2% of the platelets remained. Erythrocytes were removed by exposing the cells to hypotonic conditions. The purity of the polymorphonuclear neutrophil fraction used was greater than 97% as confirmed by light microscopy.
For analysis of leukotriene release, human neutrophils suspended in phosphate-buffered saline at approximately 1×10^7 cells per ml were used as the target cells. The cells were incubated for 30 min in the presence of test substance [(purified peptide obtained by the method as in Example 1, or human lactoferrin (Sigma Chemical Co.), or bovine lactoferrin (Morinaga Milk Industry Co.)]. Leukotriene release from the neutrophils was then induced by the addition of calcium ionophore A23187 (Sigma chemical Co.) at a final concentration of 5 μM. After 30 min, the supernatants of the stimulated cells were deproteinized by addition of 2 ml of methanol-acetonitrile (1:1) overlaid with nitrogen and frozen for 12 h at -70° C. After centrifugation at 1000×g for 15 min the supernatant was evaporated to dryness in a freeze dryer, suspended in 0.5 ml of methanol-water (30:70), overlaid with nitrogen, and stored overnight at -70° C. The samples were centrifuged at 1000×g and the supernatant was assayed for the presence of leukotrienes by high pressure liquid chromatography using a reverse-phase column of Nucleosil (C18; 5 μm particles) at a column temperature of 40° C. The solvent system was a mixture of phosphate buffer (17 mM K2 HPO4 containing 0.05% EDTA), acetonitrile, and methanol (50:30:20) adjusted to pH 5.0 with phosphoric acid. The absorbance at 280 nm of the column effluent was monitored and recorded. The concentration of each eluted leukotriene was determined from the peak area by means of a computing integrator. The leukotrienes were identified from their retention times with reference to known standards. The minimum detectable quantity was 1 ng in each instance.

In the case of lactoferrin, the “effect on calcium ionophore-induced release of histamine from peritoneal mast cells (in words)” value (peritoneal mast cells) is listed as “has activity to inhibit calcium ionophore-induced release of histamine”.

In the case of “Phe-Lys-Cys-Arg-Arg-Trp-Gln-Trp-Arg-Met-Lys-Lys-Leu-Gly-Ala-Pro-Ser-Ile-Thr-Cys-Val-Arg-Arg-Ala-Phe (FKCRRWQWRMKKLGAPSITCVRRAF; printed: Phe-Lys-Cys-Arg-Arg-Trp-Gln-Trp-Arg-Met-Lys-Lys-Leu-Gly-Ala-Pro-Ser-Ile-Thr-Cys-Val-Arg-Arg-Ala-Phe) [purified peptide]”, the “Histamine release (Relative %)” value ([1]; 1 ppm test substance) is reported as 135 ± 10 Relative %, the “activity to promote the release of histamine from mast cells induced by A23187 (in words)” value ([1]; 1 to 100 ppm) is reported as “has activity to promote the release of histamine” and the “Histamine release (Relative %)” value ([1]; 10 ppm test substance) is reported as 145 ± 15 Relative %. The “Histamine release (Relative %)” value ([1]; 100 ppm test substance) was 175 ± 20 Relative %, the “Histamine release (Relative %)” value ([2]; 1 ppm test substance) was 200 ± 60 Relative % and the “activity to promote the release of histamine from mast cells induced by α-toxin-producing Staphylococcus aureus cells (in words)” value ([2]; 1 to 100 ppm) was “has activity to promote the release of histamine”. For the same substance, the “Histamine release (Relative %)” value ([2]; 10 ppm test substance) was 250 ± 50 Relative %, the “Histamine release (Relative %)” value ([2]; 100 ppm test substance) was 460 ± 240 Relative % and the “Leukotriene released (ng) B4” value ([3]; 1 ppm test substance) was 12 ng. For the same substance, the “Leukotriene released (ng) C4” value ([3]; 1 ppm test substance) was 23 ng, the “Leukotriene released (ng) 20-COOH” value ([3]; 1 ppm test substance) was 51 ng and the “Leukotriene released (ng) 20-OH” value ([3]; 1 ppm test substance) was 70 ng. For the same substance, the “Leukotriene released (ng) (Total B4)” value ([3]; 1 ppm test substance) was 133 ng, the “activity to promote the release of leukotriene B4 from polymorphonuclear neutrophils (in words)” value ([3]; 1 to 100 ppm) was “promotes the release of leukotriene B4” and the “Leukotriene released (ng) B4” value ([3]; 10 ppm test substance) was 14 ng. The “Leukotriene released (ng) C4” value ([3]; 10 ppm test substance) was 17 ng, the “Leukotriene released (ng) 20-COOH” value ([3]; 10 ppm test substance) was 61 ng and the “Leukotriene released (ng) 20-OH” value ([3]; 10 ppm test substance) was 116 ng. The “Leukotriene released (ng) (Total B4)” value ([3]; 10 ppm test substance) was 191 ng, the “Leukotriene released (ng) B4” value ([3]; 100 ppm test substance) was 18 ng and the “Leukotriene released (ng) C4” value ([3]; 100 ppm test substance) was 23 ng. The “Leukotriene released (ng) 20-COOH” value ([3]; 100 ppm test substance) was 104 ng, the “Leukotriene released (ng) 20-OH” value ([3]; 100 ppm test substance) was 162 ng and the “Leukotriene released (ng) (Total B4)” value ([3]; 100 ppm test substance) was 284 ng.

Source: patent US5466669A, “Immunostimulatory agent” (Morinaga Milk Industry Co., Ltd., priority 1993, dated 1995)
